# Data: US10933068B2, “Modulators of DUX4 for regulation of muscle function” (GENEA BIOCELLS USA (HOLDINGS), INC., priority 2016, dated 2021)
# Experiments:
# [1] = tested on: Normal cell lines (Genea 002 and Genea 015) and an FSHD-affected cell line (Genea 096); test: Phenotypic marker screen (Example 2): cell count / toxicity; assay type: cell-based, human; settings: compound added for 24 hours; for toxicity (cell count): analyzed at the end of the myotube stage, cell lines tested overall
# Method: (§1) Briefly, stem cell lines were cultured in commercially available media, mTeSR (Stem Cell Technologies) or M2 (Genea Biocells) and dissociated into single cells using Passaging Solution (Genea Biocells). Cells were plated in Myogenic Induction Medium to induce myogenic differentiation and incubated at 37° C. and 5% CO2 for 7 to 10 days while performing media changes every other day. Once confluent, cells were dissociated into single cells using Passaging Solution and replated in Myoblast Medium (Genea Biocells) while performing media changes every other day. After 7-10 days the medium was switched to Myotube Medium (Genea Biocells) without any further media changes.
# In one example, experiments are set up according to Example 1 with cells being cultured in collagen 1-coated optical bottom 96-well plates. At the end of the culture period cells are fixed with 4% formalin and immunofluorescence stained for DUX4, Ki67, MyoD and/or MF20 or MHC. […] Staining with MF20 or MHC is used to visualize myotube morphology. High-content screening is performed to quantitatively measure the proportion of DUX4, Ki67 and MyoD-positive cells as well as myotube diameter and the number of nuclei per myotube.
# Normal cell lines (Genea 002 and Genea 015) and an FSHD-affected cell line (Genea 096) were cultured and differentiated according to Example 1. Compounds were added for 24 hours either at the beginning of the myoblast stage or at the end of the myoblast stage. Cells were further differentiated to myotubes and analyzed 7 days later at the end of the myotube stage (see FIG. 2) by immunofluorescence staining for MyoD, Ki67 and MF20.
# [2] = tested on: normal (Genea016) and FSHD-affected (Genea049 and Genea050) cell lines; test: Timing of compound contact: cell counts; assay type: cell-based, human
# Method: as §1, with “changes. After 4-7 days many multi-nucleated myotubes were observed and the cells were analyzed using a suitable assay.” for “changes.”
# (§2) In another example, normal (Genea016) and FSHD-affected (Genea049 and Genea050) cell lines were differentiated according to Example 1. A DNA methyltransferase inhibitor (Compound #1) (ASK10) or a histone methyltransferase inhibitor (Compound #2) (ASK19) was added for 24 hours either at the beginning of the myoblast stage (Group 1) or at the end of the myoblast stage (Group 2). Cells were further differentiated to myotubes and analyzed 7 days later at the end of the myotube stage (see FIG. 2). Effects on cell counts (FIGS. 11A and 11B) and MF20-positive myotubes (FIGS. 12A and 12B) were assessed.
# [3] = tested on: FSHD-affected Gen049 human Embryonic Stem Cells (hESCs); test: ASK10 cytotoxicity in DUX4-GFP induction experiments; assay type: cell-based; settings: FIG. 11A cited
# Text: Precursors were then converted to myoblasts by culture in Stage 2 Medium for 7 days with media changes every second day until confluence. […] After treatment, confluent myoblasts were switched to Stage 3 Myotube Medium (Genea Biocells). Cells were imaged hourly for phase and DUX4-GFP reporter fluorescence with the Incucyte live cell imaging system (Essen Bioscience) and Incucyte analysis software reported GFP+ events/mm2. […] Nuclei were quantified using the In Cell 6000 imaging and analysis suite.
# [4] = tested on: Genea049 reporter cell line; test: Cell death / overall cell numbers by video microscopy; assay type: cell-based, human; settings: 24 hours pulse at the beginning of the myoblast stage
# Method: In another example, Genea049 reporter cell line was differentiated according to Example 1 and the compounds were added for 24 hours at the beginning of the myoblast stage. Cells were further differentiated to myotubes (see FIG. 2) and analyzed continuously by video fluorescence microscopy using an Incucyte Zoom instrument (Essen Bioscience).
# [5] = tested on: DUX4-GFP reporter; test: Chemically induced DUX4-GFP reporter induction (ASK10 and analogs); assay type: cell-based, human
# Text: Cells were transduced with a lentivirus coding for a synthetic DUX4-responsive promoter driving a nuclear turboGFP reporter gene ([…] et al., 2015) and selected using G418 antibiotic (Thermo Fisher). Myogenic differentiation was induced using the Genea Biocells muscle differentiation protocol (Caron et al., 2016). […] Media was changed every other day for 10 days. Myogenic precursors were then re-seeded by treatment with Passaging Solution (Genea Biocells) followed by Neutralizing Solution (Genea Biocells), were pelleted, and were plated at 2500 cells/cm2 in Stage 2 Myoblast Medium (Genea Biocells). […] After treatment, confluent myoblasts were switched to Stage 3 Myotube Medium (Genea Biocells). Cells were imaged hourly for phase and DUX4-GFP reporter fluorescence with the Incucyte live cell imaging system (Essen Bioscience) and Incucyte analysis software reported GFP+ events/mm2. […] Nuclei were quantified using the In Cell 6000 imaging and analysis suite. The system as described herein can be used as a sensitive low-, medium- or high-throughput screening assay to identify compounds that suppress DUX4 following an experimental procedure as outlined in FIG. 19. […] Test compounds are added either at the beginning of differentiation stage 2 or stage 3 and may be present throughput the experiment.
# [6] = tested on: DUX4-GFP reporter; test: Rescue of ASK10- / ASK10 analog-induced DUX4-GFP by ASK19 pre-treatment; assay type: cell-based, human
# Method: Genea's FSHD-affected Gen049 human Embryonic Stem Cells (hESCs) were cultured on geltrex (Thermo Fisher) using the feeder-free mTeSR system (StemCell Technologies). Cells were transduced with a lentivirus coding for a synthetic DUX4-responsive promoter driving a nuclear turboGFP reporter gene (Rickard et al., 2015) and selected using G418 antibiotic (Thermo Fisher). Myogenic differentiation was induced using the Genea Biocells muscle differentiation protocol (Caron et al., 2016). Reporter stem cells were treated with Accutase (StemCell Technologies) and plated as single cells at 5200 cells/cm2, then changed to Stage 1 Myogenic Induction Medium (Genea Biocells). Media was changed every other day for 10 days. Myogenic precursors were then re-seeded by treatment with Passaging Solution (Genea Biocells) followed by Neutralizing Solution (Genea Biocells), were pelleted, and were plated at 2500 cells/cm2 in Stage 2 Myoblast Medium (Genea Biocells).
# In rescue experiments, Stage 2 Day 1 cells were then treated with either 1 uM ASK19 or DMSO vehicle for 24 hours. Precursors were then converted to myoblasts by culture in Stage 2 Medium for 7 days with media changes every second day until confluence. Myoblasts were passaged and seeded at 9000 cells/cm2 in 96 well format, allowed to grow to confluence, and treated in Stage 2 Medium for indicated time (0-48 hours) with 0.01 uM-3 uM of ASK10, ASK10 analog, DMSO vehicle, or media only (FIGS. 15A-15B). After treatment, confluent myoblasts were switched to Stage 3 Myotube Medium (Genea Biocells). Cells were imaged hourly for phase and DUX4-GFP reporter fluorescence with the Incucyte live cell imaging system (Essen Bioscience) and Incucyte analysis software reported GFP+ events/mm2. After imaging, cells were fixed in 10% Formalin (Thermo Fisher) for 15 minutes and stained for 2 hours using PBS (Invitrogen) with 5% BSA (Thermo Fisher), 0.25% Triton-X (Thermo Fisher), and 1:5000 Hoechst (Thermo Fisher) DNA dye. Nuclei were quantified using the In Cell 6000 imaging and analysis suite.
# [7] = tested on: DUX4 reporter in the FSHD-affected Genea049 reporter cell line; test: DUX4 reporter, high-content imaging; assay type: cell-based, human; settings: added for 24 hours at the end of the myoblast stage; analyzed 7 days later
# Method: (§3) Lentivirus constructs were used to stably integrate a DUX4 reporter into human embryonic stem cell lines (FIG. 5). Cells were plated in collagen I-coated 12-well plates (Corning BIOCOAT™-Cat #354500) in M2 hESC maintenance medium (Genea Biocells). Since cell lines grow at different rates and may optimally transduce at distinct cell densities, each line was plated at four different cell densities and transduced for 2 hours using a vector preparations diluted at 1:20 (50 ul/ml) in M2 medium containing 8 ug/ml polybrene. A pilot “kill curve” was established using the same non-transfected cell lines to help define the baseline antibiotic concentration required during the selection process. Based on the results, all transduced cells were selected with 300 ug/ml of G418 for at least 10 days. The antibiotic selected cells were further expanded in M2 (2× T175 flasks for each cell line) and samples were cryopreserved as stocks of 0.5 to 1×10^6 cells/vial.
# In another example, Genea049 reporter cell line was differentiated according to Example 1 and the compounds were added for 24 hours at the end of the myoblast stage. Cells were further differentiated to myotubes and analyzed 7 days later at the end of the myotube stage (see FIG. 2) by fixation, counterstaining nuclei with Hoechst and visualizing nuclei and the reporter by high-content imaging.
# [8] = tested on: DUX4 reporter in the FSHD-affected Genea049 reporter cell line; test: DUX4 reporter, time-lapse video fluorescence microscopy; assay type: cell-based, human; settings: added for 24 hours at the beginning of the myoblast stage; analyzed continuously
# Method: as §3
# In another example, experiments are set up according to Example 1 with FSHD-affected DUX4 reporter cells being cultured in collagen I-coated 96-well plates. […] The cells are continuously observed by time-lapse video microscopy (IncuCyte Zoom, Essen Bioscience) and the number of GFP-positive (DUX4-expressing) nuclei are detected and quantified throughout the culture period. […]
# [9] = tested on: normal (Genea016) and FSHD-affected (Genea049 and Genea050) cell lines; test: Timing of compound contact: MF20-positive myotubes; assay type: cell-based, human; settings: 24 hours treatment, analyzed at the end of the myotube stage
# Method: as §1, with “changes. After 4-7 days many multi-nucleated myotubes were observed and the cells were analyzed using a suitable assay.” for “changes.”
# as §2
# [10] = tested on: Normal cell lines (Genea 002 and Genea 015) and an FSHD-affected cell line (Genea 096); test: Phenotypic marker screen (Example 2): myogenesis, MF20 and myotube length; assay type: cell-based, human; settings: compound added for 24 hours
# Method: as §1
# In one example, experiments are set up according to Example 1 with cells being cultured in collagen 1-coated optical bottom 96-well plates. […] High-content screening is performed to quantitatively measure the proportion of DUX4, Ki67 and MyoD-positive cells as well as myotube diameter and the number of nuclei per myotube.
# Normal cell lines (Genea 002 and Genea 015) and an FSHD-affected cell line (Genea 096) were cultured and differentiated according to Example 1. […] Cells were further differentiated to myotubes and analyzed 7 days later at the end of the myotube stage (see FIG. 2) by immunofluorescence staining for MyoD, Ki67 and MF20.
# [11] = tested on: DUX4 expression; test: Chaetocin induction of DUX4 expression, immunofluorescence staining; assay type: cell-based, human; settings: myotubes from FSHD-affected cell lines, DUX4 E5-5 antibody
# Method: as §1, with “changes. After 4-7 days many multi-nucleated myotubes were observed and the cells were analyzed using a suitable assay.” for “changes.”
# (§4) In myotubes from FSHD-affected cell lines DUX4 expression was observed by immunofluorescence staining using DUX4 E5-5 antibody, either spontaneously or by transfecting cells with a DUX4 expression vector (FIG. 3). In some cases, the expression of DUX4 in myogenic cells may be a rare event. Thus, to increase the assay window and sensitivity, chaetocin was used to increase the number of cells expressing DUX4 (FIG. 4A). […] In some examples, compounds may be screened in the presence of 50-200 nM chaetocin, a compound described to result in elevated levels of DUX4 expression in human myoblast cultures (FIG. 2).
# [12] = tested on: myotubes from FSHD-affected cell lines; test: Chaetocin toxicity, total nuclei count; assay type: cell-based, human; settings: at 50-100 nM
# Method: as §4
structure (smiles),measurement,setting,value
"Nc1ncn([C@H]2C[C@H](O)[C@@H](CO)O2)c(=O)n1 [ASK10, decitabine]",toxicity (cell count),[1],highly toxic at higher doses
same,toxicity to FSHD-affected cells,[1]; FSHD-affected cells (Genea 096),less so
same,"toxicity, normal versus FSHD-affected myoblasts",[2]; 24 hours treatment,much more toxic for normal myoblasts than for FSHD-affected myoblasts
same,"toxicity (cell counts), FSHD","[2]; added at the end of the myoblast stage (Group 2), FSHD",not toxic
same,"toxicity (cell counts), normal","[2]; added at the end of the myoblast stage (Group 2), normal",only mildly toxic
same,toxicity (cell counts),[2]; added for 24 hours at the beginning of the myoblast stage (Group 1),significant toxicity at higher doses
same,cytotoxicity,[3],did not display any noticeable cytotoxicity
same,time of cell death after the compound had been removed,[4],6 to 7 days
same,EC50,"[5]; Homo sapiens, DUX4-GFP cell number per well, read-out: EC50 at which the most significant DUX4 expression induction was detected",≥ 1000 nM
same,DUX4 expression activation versus vehicle control,[5]; about 48 hours post-exposure,12-15 fold
same,time at which DUX4 induction plateaus,[5]; post-exposure,about 120 hours
"CC[C@H](C)n1cc(C)c2c(C(=O)NCc3c(C)cc(C)[nH]c3=O)cc(-c3ccc(N4CCNCC4)nc3)cc21 [ASK19, GSK126]",toxicity (cell count),[1],not toxic
same,toxicity (cell counts),[2]; any of the cell lines under any treatment regimen,not toxic
same,EC50,"[6]; ASK10- and ASK10-15-induced, tentative, read-out: EC50 of rescue of induced DUX4-GFP production",250 to 500 nM
same,"GFP+ events over time, ASK19/ASK10 curve","[6]; ASK19 pre-treatment then ASK10, FIG. 18",extends along the bottom of the graph
same,"GFP+ events over time, ASK19/ASK10-15 curve","[6]; ASK19 pre-treatment then ASK10-15, FIG. 18",extends along the bottom of the graph
same,rescue of ASK10- and ASK10 analog-induced DUX4 activation,[6]; pre-treatment with ASK19,rescues
same,DUX4-positive cells,[7],no effect
same,DUX4-positive cells,[8],suppressed DUX4 expression and/or function
same,MF20-positive myotubes (myogenesis),[9],dose-dependent increase
same,"myogenesis, cells expressing MF20",[10]; analyzed at the end of the myotube stage,more MF20-positive cells
same,myotube length,[10]; all cell lines tested,longer myotubes
CN1C(=O)[C@@]23C[C@]4([C@]56C[C@@]78SS[C@@](CO)(C(=O)N7[C@H]5Nc5ccccc56)N(C)C8=O)c5ccccc5N[C@@H]4N2C(=O)[C@]1(CO)SS3 [chaetocin],chaetocin concentration found to induce DUX4 expression,[11],50 to 100 nM
same,toxicity,[12],only mild toxicity
